Measurements as given in ChEMBL document CHEMBL3045786, “Insect antifeedant activity of tetranortriterpenoids from the Rutales. A perusal of structural relations” (2002).

Tested on: Spodoptera litura
Test: Feeding index against larvae of Spodoptera litura in castor leaves =

Row | SMILES | PFI
1 | COC(=O)C[C@H]1[C@]2(C)C3=C(C)[C@H](C4=CC(=O)OC4O)C[C@H]3O[C@@H]2[C@H](OC(C)=O)[C@@H]2[C@]1(C)C(=O)C=C[C@@]2(C)C(=O)OC (stereo partly drawn) [NIMBIN PP] | 19.9%
2 | COC1=C2C(C)(C)C(=O)CC[C@]2(C)[C@H]2CC[C@@]3(C)[C@H](c4ccoc4)C[C@H]4O[C@]43[C@]2(C)C1=O [DIHYDROCEDRELONE METHYL ETHER] | 56.5%
3 | CC(=O)OC1[C@H](O)[C@H]2C(C)(C)C(=O)CC[C@]2(C)[C@H]2CC[C@]3(C)C(=CC[C@H]3c3ccoc3)[C@]12C (stereo partly drawn) [ISOMELDENIN] | 60.6%
4 | C/C=C(\C)C(=O)O[C@H]1C[C@@H](OC(C)=O)[C@@]2(C)CO[C@H]3[C@@H](O)[C@@](C)([C@]45O[C@@]4(C)[C@H]4C[C@@H]5O[C@@H]5OC=C[C@@]54O)[C@@H]4[C@H](O)OC[C@@]14[C@@H]32 [AZADIRACHTIN-I] | 32.2%
5 | CC(=O)O[C@@H]1C[C@H]2C(C)(C)C(=O)C=C[C@]2(C)[C@H]2CC[C@@]3(C)[C@H](c4ccoc4)C(=O)[C@H]4O[C@]43[C@@]21C [EPOXYAZADIRADIONE] | 50.4%
6 | C/C=C(\C)C(=O)O[C@@H]1[C@@H]2OC[C@]3(C)[C@H](O)C[C@H](O)[C@@]4(CO[C@H](C(=O)OC)[C@H]4[C@]1(C)[C@]14O[C@@]1(C)[C@H]1C[C@@H]4O[C@@H]4OC=C[C@@]41O)[C@@H]23 [3-TIGLOYL MELIACARPIN] | 13.3%
7 | C/C=C(\C)C(=O)O[C@H]1CC(=O)[C@@]2(C)CO[C@H]3[C@H]4O[C@@H]5C[C@@H](c6ccoc6)C(C)=C5[C@@]4(C)[C@H](CC(=O)OC)[C@]1(C)[C@@H]32 [3-OXOSALANNIN] | 42.9%
8 | COC(=O)C[C@H]1[C@]2(C)C3=C(C)[C@H](C4=CC(O)OC4=O)C[C@H]3O[C@@H]2[C@H](OC(C)=O)[C@@H]2[C@]1(C)C(=O)C=C[C@@]2(C)C(=O)OC (stereo partly drawn) [NIMBINOLIDE] | 26.7%
9 | C/C=C(\C)C(=O)O[C@@H]1[C@@H]2C=C3[C@@H]4CC(=O)O[C@@H](c5ccoc5)[C@]4(C)CC[C@@H]3[C@@](C)(C2=O)[C@@H]([C@@H](O)C(=O)OC)C1(C)C [SWIETENINE] | 49.1%
10 | C/C=C(\C)C(=O)O[C@@H]1[C@@H]2C=C3[C@@H]4CC(=O)O[C@@H](C5=CC(O)OC5=O)[C@]4(C)CC[C@@H]3[C@@](C)(C2=O)[C@@H]([C@@H](O)C(=O)OC)C1(C)C (stereo partly drawn) [SWIETENINE PP] | 40.2%
11 | CC1(C)C(=O)C=C[C@@]2(C)C1=C(O)C(=O)[C@@]1(C)C3=CC[C@@H](c4ccoc4)[C@]3(C)CC[C@@H]12 [DESEPOXYCEDRELONE] | 55.3%
12 | CC(=O)O[C@@H]1[C@H](O)[C@H]2C(C)(C)C(=O)C=C[C@]2(C)[C@H]2CC[C@]3(C)C(=CC[C@H]3C3=CCOC3=O)[C@]12C [NIMONOL MW] | 44.2%
13 | CC(=O)O[C@@H]1[C@H](O)[C@H]2C(C)(C)C(=O)CC[C@]2(C)[C@H]2CC[C@]3(C)C(=CC[C@H]3C3=CC(O)OC3=O)[C@]12C (stereo partly drawn) [ISOMELDENIN PP] | 28.3%
14 | C/C=C(\C)C(=O)O[C@H]1C[C@@H](O)[C@@]2(C)CO[C@H]3[C@H]4O[C@@H]5C[C@@H](C6=CCOC6=O)C(C)=C5[C@@]4(C)[C@H](CC(=O)OC)[C@]1(C)[C@@H]32 [DESACETYLSALANNOBUTYROLACTONE] | 40.35%
15 | CC(=O)OC1=C2C(C)(C)C(=O)[C@H]3O[C@H]3[C@]2(C)[C@H]2CC[C@@]3(C)[C@H](c4ccoc4)C[C@H]4O[C@]43[C@]2(C)C1=O [CEDRELONEEPOXIDE ACETATE] | 53.2%
16 | CC1(C)C(=O)CC[C@@]2(C)C1=C(O)C(=O)[C@]1(C)[C@@H]2CC[C@@]2(C)[C@H](c3ccoc3)C[C@H]3O[C@]321 [DIHYDROCEDRELONE] | 50.5%
17 | COC(=O)[C@H]1OC[C@]23[C@@H]1[C@](C)([C@]14O[C@@]1(C)[C@H]1C[C@@H]4O[C@@H]4OC=C[C@@]41O)[C@H](O)[C@@H]1OC[C@](C(=O)OC)([C@H](O)C[C@@H]2O)[C@H]13 [AZADIRACHTOL] | 6.1%

Row | SMILES | PFI
18 | CC(=O)O[C@@H]1[C@H](O)[C@H]2C(C)(C)C(=O)C=C[C@]2(C)[C@H]2CC[C@@]3(C)[C@H](C45CC(O)OC4O5)C[C@@H]4O[C@@]43[C@]12C (stereo partly drawn) [NIMONOL PP2] | 15.8%
19 | COC(=O)C[C@H]1[C@]2(C)C3=C(C)[C@H](C4=CCOC4=O)C[C@H]3O[C@@H]2[C@H](OC(C)=O)[C@@H]2[C@]1(C)C(=O)C=C[C@@]2(C)C(=O)OC [NIMBIN MW] | 42.9%
20 | COC1=C2C(C)(C)C(=O)[C@H]3O[C@H]3[C@]2(C)[C@H]2CC[C@@]3(C)[C@H](c4ccoc4)C[C@H]4O[C@]43[C@]2(C)C1=O [METHYL ETHER CEDRELONEEPOXIDE] | 54%
21 | C=C1[C@@H]2CC[C@@]3(C)[C@H](c4ccoc4)OC(=O)C[C@]13O[C@H]1CC(=O)C(C)(C)[C@H](CC(=O)OC)[C@]12C [METHYLANGOLENSATE] | 65.3%
22 | CC(=O)OC1=C2C(C)(C)C(=O)C=C[C@]2(C)[C@H]2CC[C@@]3(C)[C@H](c4ccoc4)C[C@H]4O[C@]43[C@]2(C)C1=O [CEDRELONE ACETATE] | 55%
23 | CC(=O)O[C@@H]1C[C@H]2C(C)(C)C(=O)C=C[C@]2(C)[C@H]2CC[C@]3(C)C(=CC(=O)[C@H]3C3=CC(O)OC3=O)[C@@]21C (stereo partly drawn) [AZADIRADIONE PP] | 34.7%
24 | CC(=O)O[C@@H]1[C@H](O)[C@H]2C(C)(C)C(=O)C=C[C@]2(C)[C@H]2CC[C@@]3(C)[C@H](c4ccoc4)C[C@H]4O[C@]43[C@]12C [EPOXY NIMONOL] | 32%
25 | COC(=O)C[C@H]1[C@]2(C)C3=C(C)[C@H](c4ccoc4)C[C@H]3O[C@@H]2[C@H](OC(C)=O)[C@@H]2[C@]1(C)C(=O)C=C[C@@]2(C)C(=O)OC [NIMBIN] | 33.7%
26 | COC(=O)C[C@H]1[C@]2(C)C3=C(C)[C@H](c4ccoc4)C[C@H]3O[C@@H]2[C@@H]2OC(=O)[C@]3(C)C=CC(=O)[C@@]1(C)[C@@H]23 [NIMBOLIDE] | 37%
27 | C/C=C(\C)C(=O)O[C@H]1C[C@@H](OC(C)=O)[C@@]2(C)CO[C@H]3[C@H]4O[C@@H]5CC(C6=CC(=O)OC6O)=C(C)C5[C@@]4(C)[C@H](CC(=O)OC)[C@]1(C)[C@@H]32 (stereo partly drawn) [SALANNIN PP1] | 29.1%
28 | COC1=C2C(C)(C)C(=O)C=C[C@]2(C)[C@H]2CC[C@@]3(C)[C@H](c4ccoc4)C[C@H]4O[C@]43[C@]2(C)C1=O [CEDRELONEMETHYL ETHER] | 56%
29 | COC(=O)C[C@H]1[C@]2(C)C3=C(C)[C@H](C4=CCOC4=O)C[C@H]3O[C@@H]2[C@H](O)[C@@H]2[C@]1(C)C(=O)C=C[C@@]2(C)C(=O)OC [DESACETYLNIMBIN MW] | 35.1%
30 | COC(=O)C[C@H]1[C@]2(C)C3=C(C)[C@H](c4ccoc4)C[C@H]3O[C@@H]2C(=O)[C@@H]2[C@]1(C)C(=O)C=C[C@@]2(C)C(=O)OC [6-OXONIMBIN] | 42.3%
31 | CC(=O)O[C@@H]1C(=O)[C@H]2C(C)(C)C(=O)C=C[C@]2(C)[C@H]2CC[C@]3(C)C(=CC[C@H]3c3ccoc3)[C@]12C [6-OXONIMONOL] | 44.2%
32 | CC(=O)O[C@@H]1C[C@H]2C(C)(C)C(=O)C=C[C@]2(C)[C@H]2CC[C@@]3(C)[C@H](C4=CC(O)OC4=O)C(=O)[C@H]4O[C@]43[C@@]21C (stereo partly drawn) [EPOXY AZADIRADIONE PP] | 29.4%
33 | CC1(C)C(=O)C=C[C@@]2(C)C1=C(O)C(=O)[C@]1(C)[C@@H]2CC[C@@]2(C)[C@H](C3=CO[C@@H]4O[C@H]34)C[C@H]3O[C@]321 [CEDRELONE-22-EPOXIDE] | 44.2%
